One compound from ChEMBL document CHEMBL1153802, “Human plasma-mediated hypoxic activation of indolequinone-based naloxone pro-drugs” (Bioorg Med Chem Lett, 2009) can be followed below.

This data set relates to Plasma. Description: Prodrug stability in human plasma assessed as […] release under normoxic condition after 24 hrs by HPLC analysis. In kind it is ADME, cell-free.

Take `C=CCN1CC[C@]23c4c5ccc(OC(=O)N(C)CCN(C)C(=O)OCc6c7c(n(C(=O)NCCOCCOCCNC(=O)OC(C)(C)C)c6C)C(=O)C=C(OC)C7=O)c4O[C@H]2C(=O)CC[C@@]3(O)[C@H]1C5`: the Stability result was “Unstable”.
